Measurements taken from patent US11963975B2, “Therapeutic targets for facioscapulohumeral muscular dystrophy” (University of Massachusetts, priority 2016, dated 2024).
Several values for one entry are separate records, joined by “and”; a condition that tells them apart may be missing. Identical values can stand only once.

What was measured:
[1] = tested on: primary myoblasts isolated from FSHD1-affected and FSHD-asymptomatic patients; assay: small molecule treatment of primary myoblasts, DUX4 expression; assay type: cell-based, human; details: alone, or in combination; FIG. 15
Excerpt: Trichostatin A (TSA) is a histone deacetylase inhibitor, 5-aza-2′-deoxycytidine (5′ADC) is a DNA methylation inhibitor and chaetocin (CH) is a histone methyltransferase inhibitor.

[2] = tested on: primary FSHD muscle cells (09Abic); assay: JQ1 treatment time course, gene expression; assay type: cell-based, human
Excerpt: (§1) DUX4 expression is induced during myogenic differentiation, and blocking or slowing down this process, as the case with JQ1, give the appearance of inhibiting DUX4 expression, when in fact it is merely altering the kinetics of myoginc differentiation. Importantly, these genes are misregulated by JQ1 in both FSHD and healthy human skeletal muscle myoblasts (HSMM) (FIG. 17). Therefore, JQ1 is an example of a non-specific small molecule and not appropriate for use as an FSHD therapeutic.

[3] = tested on: healthy human skeletal muscle myoblasts (HSMM); assay: JQ1 treatment of healthy myoblasts, myogenic gene expression; assay type: cell-based; details: FIG. 17
Excerpt: as §1

[4] = tested on: skeletal myocytes from an FSHD1 patient (05Abic); assay: shRNA knockdown screen in terminally differentiated FSHD myocytes, gene expression by qRT-PCR; assay type: cell-based, human; details: harvested 4 days after second infection, Mock = 1
Procedure: A screen to identify genes involved in DUX4 expression (e.g., when the expression of these genes is reduced in FSHD muscle cells, DUX4 expression also decreases) was performed. Briefly, primary differentiated myocytes derived from subjects having FSHD were treated with shRNA targeting candidate genes and the expression level of pathogenic DUX4-fl mRNA was quantified. The expression levels of other myogenic regulators (e.g., Myogenin, MyoD, MyHD) and other targets (e.g., FRG1, UTRN, and 18S) were also quantified to assess indirect effects of DUX4 knockdown. A sample screening protocol is shown below:
• 1. Expand low passage primary FSHD myoblasts. • 2. Plate into 6-well plates. • 3. Allow cells to reach confluence and differentiate (approximately 48 hours). • 4. Infect cells with lentiviral shRNA construct and incubate for 24 hours. • 5. Re-infect cells with lentiviral shRNA construct. • 6. Harvest cells 4 days after second infection. • 7. Extract RNA from cells and assay for expression level of DUX4-fl and other genes of interest.
(§2) Myogenic cultures derived from biceps muscles of unrelated FSHD1 patients (05Abic, 17Abic, and 18Abic) were grown in Ham's F-10 medium supplemented with 20% FBS (Hyclone), 0.5% chick embryo extract, 1% antibiotics & antimycotics, and 1.2 mM CaCl2. 293T packaging cells were grown in DMEM+10% FBS+0.1% […]. For shRNA knockdown experiments, 293T cells were transfected with lentiviral packaging plasmid (pCMV-dR8.91), envelope plasmid (VSV-G), and SIGMA MISSION shRNA expression plasmids. Lentiviral supernatants were harvested, aliquoted, and frozen at −80° C. FSHD1 skeletal myoblasts were seeded in collagen-coated 6-well plates (for gene expression analysis) or 10-cm plates (for ChIP) and grown to confluence, then allowed to self-differentiate in growth medium for ˜48 h. Cells were subjected to two rounds of infection. Briefly, lentiviral supernatants+8 μg/ml polybrene were added to cultures and the plates were incubated for 15 min at 37° C., then wrapped well with parafilm before centrifuging for 30 min at 1100 g (32° C.). Following centrifugation, the viral supernatants were replaced with growth medium. Cells were maintained in growth medium and harvested 4 d after the last round of infection. For dCas9-KRAB infections, 293T cells were transfected with lentiviral packaging plasmid (pCMV-dR8.91), envelope plasmid (VSV-G), and either dCas9-KRAB expression plasmid (#50919) or sgRNA expression plasmid using the TransIT-LT1 transfection reagent. Lentiviral supernatants were harvested at […] from 72-108 h post-transfection. FSHD1 skeletal myoblasts were seeded in collagen-coated 6-well plates and grown to ˜80% confluency, then subjected to four serial infections over two days. Cells were allowed to recover for ˜8 h in growth medium prior to the next round of infection. Following the last infection, these self-differentiated cultures were maintained in growth medium for 72 h prior to harvesting.
Total RNAs were extracted using TRIzol (Invitrogen) and purified using the RNeasy Mini kit (Qiagen) after on-column DNase I digestion. Total RNA (2 μg) was used for cDNA synthesis using Superscript III Reverse Transcriptase (Invitrogen), and 200 ng of cDNA were used for qPCR analysis.
The D4Z4 macrosatellite array that encodes DUX4 is normally under strong epigenetic repression in adult somatic cells. […] Thirty-six candidate activators of DUX4 fl were investigated as potential drug targets (Table 3). These candidates include transcriptional regulators, chromatin remodelers, and histone modifying enzymes. For the initial screen, skeletal myocytes from an FSHD1 patient (05Abic) which express consistent and relatively high levels of DUX4 fl when terminally differentiated were used. Using lentivirus-encoded shRNAs, each candidate was knocked down in terminally differentiated cultures, then cells were harvested four days later and assessed for expression of DUX4 fl and other genes.

[5] = tested on: FSHD myocytes (05Abic, 18Abic, and 17Abic); assay: shRNA knockdown across FSHD cohorts, DUX4-fl by qRT-PCR; assay type: cell-based, human; details: FIG. 11F
Excerpt: FIGS. 11A-11F show shRNA knockdown of epigenetic regulators reduces expression of DUX4-fl in FSHD myocytes. Differentiated FSHD myocytes were infected in two serial rounds with shRNAs to ASH1L (FIG. 11A), BAZ1A (FIG. 11B), BRD2 (FIG. 11C), KDM4C (FIG. 11D), SMARCA5 (FIG. 11E), or a scrambled control. Four days later, cells were harvested for analysis of the full-length DUX4 isoform (DUX4-fl), Myogenin (Myog), MyoD, Myosin heavy chain 1 (MyHC), FRG1, Utrophin (Utr), and 18S gene expression by qRT-PCR. […] In all panels, relative mRNA expression for mock or control-infected cells is set to 1. Data are plotted as the mean+SD value of technical replicates.
as §2
Total RNAs were extracted using TRIzol (Invitrogen) and purified using the RNeasy Mini kit (Qiagen) after on-column DNase I digestion. […]

Compound | DUX4 expression (in words) [1] | DUX4 expression (in words) ([2]; 09Abic) | expression of downstream genes TRIM43 and ZSCAN4 (in words) ([2]; 09Abic) | expression of myogenic regulatory genes myogenin (Myog), myoD, myosin heavy chain (MyHC), and myostatin (Myost) (in words) ([2]; time course of treatment, FIG. 16) | myogenic genes (Myog, myoD, MyHC) (in words) [3] | 18S relative gene expression [4] | D4-fl relative gene expression [4] | FRG1 relative gene expression [4] | MyHC relative gene expression [4] | MyoD relative gene expression [4] | Myog relative gene expression [4] | Utr relative gene expression [4] | DUX4-fl expression (in words) [5]
Nc1ncn([C@H]2C[C@H](O)[C@@H](CO)O2)c(=O)n1 [5-aza-2′-deoxycytidine] | affect DUX4 expression |  |  |  |  |  |  |  |  |  |  |  | 
Cc1sc2c(c1C)C(c1ccc(Cl)cc1)=N[C@@H](CC(=O)OC(C)(C)C)c1nnc(C)n1-2 [JQ1] |  | appears to inhibit | appears to inhibit | inhibiting the expression | misregulated |  |  |  |  |  |  |  | 
CC(/C=C/C(=O)NO)=C\[C@@H](C)C(=O)c1ccc(N(C)C)cc1 [Trichostatin A] | affect DUX4 expression |  |  |  |  |  |  |  |  |  |  |  | 
PJ1: shRNA targeting ASH1L; SEQ ID NO: 4 (guide CCGGCGACATAAACTTGACATCTTTCTCGAGAAAGATGTCAAGTTTATGTCGTTTTT) |  |  |  |  |  | 1.372 | 0.3399 | 1.051 | 1.066 | 0.7238 | 1.795 | 0.6994 | reduce DUX4-fl expression
PJ2: shRNA targeting ASH1L; SEQ ID NO: 5 (guide CCGGCCTGCCAAATACCATAAGAAACTCGAGTTTCTTATGGTATTTGGCAGGTTTTT) |  |  |  |  |  | 1.311 | 0.1371 | 1.172 | 0.7221 | 0.8503 | 0.8845 | 0.815 | 
PJ3: shRNA targeting ASH1L; SEQ ID NO: 6 (guide CCGGCGTACTTTGTTTATCCCAGAACTCGAGTTCTGGGATAAACAAAGTACGTTTTT) |  |  |  |  |  | 1.185 | 0.2434 | 1.141 | 1.341 | 0.9895 | 0.7218 | 1.128 | 
PJ11: shRNA targeting BRD2; SEQ ID NO: 10 (guide CCGGCCCTTTGCTGTGACACTTCTTCTCGAGAAGAAGTGTCACAGCAAAGGGTTTTT) |  |  |  |  |  | 1.112 | 0.124 | 1.25 | 0.7342 | 0.9277 | 1.026 | 0.6067 | reduce DUX4-fl expression
PJ12: shRNA targeting BRD2; SEQ ID NO: 11 (guide CCGGGCCCTCTTTACGTGATTCAAACTCGAGTTTGAATCACGTAAAGAGGGCTTTTT) |  |  |  |  |  | 1.099 | 0.1127 | 1.178 | 0.7927 | 0.904 | 1.088 | 0.6755 | 
PJ73: shRNA targeting KDM4C; SEQ ID NO: 1 (guide CCGGGCCTCTGACATGCGATTTGAACTCGAGTTCAAATCGCATGTCAGAGGCTTTTT) |  |  |  |  |  | 1.253 | 0.1101 | 1.043 | 0.7968 | 0.9045 | 1.338 | 0.6393 | 
PJ74: shRNA targeting KDM4C; SEQ ID NO: 2 (guide CCGGGCAGAGAGTAATGGTGTGTTACTCGAGTAACACACCATTACTCTCTGCTTTTT) |  |  |  |  |  | 1.129 | 0.08801 | 1.211 | 0.7642 | 0.7621 | 1.81 | 0.7121 | reduce DUX4-fl expression
PJ75: shRNA targeting KDM4C; SEQ ID NO: 3 (CCGGGCCCAAGTCTTGGTATGCTATCTCGAGATAGCATACCAAGACTTGGGCTTTTT) |  |  |  |  |  | 0.9781 | 0.1812 | 0.7766 | 0.9826 | 1.048 | 1.318 | 1.018 | 
PJ152: shRNA targeting BAZ1A; SEQ ID NO: 9 (guide CCGGGCGATGAAGAAGAAGGTCAAACTCGAGTTTGACCTTCTTCTTCATCGCTTTTTG) |  |  |  |  |  | 1.312 | 0.1892 | 0.9047 | 0.8503 | 0.991 | 1.318 | 0.954 | 
PJ195: shRNA targeting SMARCA5; SEQ ID NO: 7 (guide CCGGGTTCTTTAATTTACGGGTCTTCTCGAGAAGACCCGTAAATTAAAGAACTTTTT) |  |  |  |  |  | 0.9905 | 0.168 | 0.9865 | 0.7803 | 0.8981 | 0.8003 | 1.024 | 
PJ196: shRNA targeting SMARCA5; SEQ ID NO: 8 (guide CCGGCCGGGCAAATAGATTCGAGTACTCGAGTACTCGAATCTATTTGCCCGGTTTTT) |  |  |  |  |  | 0.9807 and 1.048 | 0.1085 and 0.1967 | 0.8974 and 0.9209 | 0.469 and 0.5926 | 0.722 and 0.9103 | 0.9247 and 0.9293 | 0.8261 and 1.231 | reduce DUX4-fl expression
